The results in this text go back to ChEMBL document CHEMBL5226337, “Pyrazolopyrimidines as anticancer agents: A review on structural and target-based approaches” (Eur J Med Chem, 2021).

Each structure is given as a SMILES string. pIC50: −log10 of the molar value. Converted amounts (≈) assume the structure as drawn. Where only a bound is given, the exact number is not on record here.

The subject of data set [1] is Maver1. As to the kind of experiment: cells. To be noted: Homo sapiens, Maver1, 72 h.
Description: Anticancer activity against human MAVER-1 cells assessed as inhibition of cell proliferation measured after 72 hrs by Cell Titer-Glo Luminescent
Data set [2] concerns HCT-116. The experiment in a line: Anticancer activity against human HCT-116 cells assessed as inhibition of cell proliferation measured after 48 hrs by MTT assay. The class given is functional, cell-based. To be noted: HCT-116, 48 h. On the technique in general: Tetrazolium assays rely on reduction of a dye to a coloured formazan, in cell work by metabolically active cells.

In data set [3] the test system is HeLa. As to the kind of experiment: Anticancer activity against human HeLa cells assessed as inhibition of cell proliferation measured after 24 hrs by MTT assay. The class given is functional, cell-based.
Data set [4] has as its system MCF7. As to the kind of experiment: Anticancer activity against human MCF7 cells assessed as inhibition of cell proliferation measured after 24 hrs by MTT assay. The data set is classed as functional, cell-based. Particulars: MCF7, 24 h.
Data set [5] concerns HT-29. As to the kind of experiment: Anticancer activity against human HT-29 cells assessed as inhibition of cell proliferation measured after 16 hrs by MTT assay. The data set is classed as functional, cell-based. Particulars: HT-29, 16 h.
For data set [6], the system named is KB. As to the kind of experiment: Anticancer activity against human KB cells assessed as inhibition of cell proliferation measured after 16 hrs by MTT assay. The class given is functional, cell-based.
The subject of data set [7] is HepG2. As to the kind of experiment: Anticancer activity against human HepG2 cells assessed as inhibition of cell proliferation measured after 16 hrs by MTT assay. The class given is functional, cell-based. Particulars: HepG2, 16 h.
The test system of data set [8] is HepG2. The experiment in a line: Anticancer activity against human HepG2 cells assessed as inhibition of cell proliferation by MTT assay. The class given is functional, cell-based.
Data set [9] can be described thus: Selectivity index, ratio of IC50 for cytotoxicity against FHC cells to IC50 for antiproliferative activity against KM12 cells. To be noted: human; read-out: Ratio IC50. The data set is classed as toxicity, cell-based.
For data set [10], the system named is KM12. The experiment in a line: Anticancer activity against human KM12 cells assessed as inhibition of cell proliferation measured after 72 hrs by MTT assay. To be noted: KM12, 72 h. The data set is classed as functional, cell-based.
Data set [11] has as its system Raji. As to the kind of experiment: Anticancer activity against human Raji cells assessed as inhibition of cell proliferation preincubated for 1 hr followed by compound addition measured after 1 hrs by Cell Titer-Glo assay. The class given is functional, cell-based. For orientation: ATP-based viability assays read luminescence as a measure of living cells.
In data set [12] the target is Tyrosine-protein kinase BTK (Homo sapiens, UniProt Q06187). As to the kind of experiment: Inhibition of human BTK using biotin as a substrate preincubated for 5 mins followed by substrate addition incubated for 30 mins in presence of ATP by fluorescence based assay.
Data set [13] deals with Ramos. As to the kind of experiment: Anticancer activity against human Ramos cells assessed as inhibition of cell proliferation preincubated for 1 hr followed by compound addition measured after 1 hrs by Cell Titer-Glo assay. The class given is functional, cell-based.
Data set [14] deals with Panel NCI-60 (60 carcinoma cell lines). As to the kind of experiment: Anticancer activity against human Panel NCI-60 (60 carcinoma cell lines) assessed as inhibition of cell proliferation. The class given is functional.
Data set [15] has as its system HCT-116. As to the kind of experiment: Anticancer activity against human HCT-116 cells assessed as inhibition of cell proliferation measured after 18 hrs by spectrophotometric analysis relative to control. The data set is classed as functional.
Data set [16] deals with MCF7. The experiment in a line: Anticancer activity against human MCF7 cells assessed as inhibition of cell proliferation measured after 18 hrs by spectrophotometric analysis relative to control. The class given is functional.
Data set [17] deals with Tyrosine-protein kinase JAK2 (Homo sapiens, UniProt O60674). The experiment in a line: Inhibition of human JAK2 using biotin as a substrate preincubated for 5 mins followed by substrate addition incubated for 30 mins in presence of ATP by fluorescence based assay.
Data set [18] has as its system MCF7. As to the kind of experiment: Anticancer activity against human MCF7 cells assessed as inhibition of cell proliferation measured after 24 hrs by MTT based microplate ELISA reader analysis. To be noted: MCF7, 24 h. The class given is functional.
Data set [19] can be described thus: Inhibition of KDM (unknown origin) incubated for 30 mins in presence of ATP by ELISA assay. Further details: species or system Homo sapiens. A general note: An ELISA detects its analyte on a solid surface through an enzyme-linked reagent.
Data set [20] can be described thus: Anticancer activity against human MINO cells assessed as inhibition of cell proliferation measured after 72 hrs by Cell Titer-Glo Luminescent. The data set is classed as functional, cell-based.
The subject of data set [21] is JeKo-1. The experiment in a line: Anticancer activity against human JeKo-1 cells assessed as inhibition of cell proliferation measured after 72 hrs by Cell Titer-Glo Luminescent. To be noted: JeKo-1, 72 h. The class given is functional, cell-based.
The test system of data set [22] is Z-138. The experiment in a line: Anticancer activity against human Z138 cells assessed as inhibition of cell proliferation measured after 72 hrs by Cell Titer-Glo Luminescent. Particulars: Z-138, 72 h. The data set is classed as functional, cell-based.
In data set [23] the test system is MCF7. The experiment in a line: Anticancer activity against human MCF7 cells assessed as inhibition of cell proliferation measured after 48 hrs by MTT assay. The data set is classed as functional, cell-based. Particulars: MCF7, 48 h.
In data set [24] the test system is HepG2. The experiment in a line: Anticancer activity against human HepG2 cells assessed as inhibition of cell proliferation measured after 72 hrs by SRB calorimetric assay. The class given is functional, cell-based. Particulars: HepG2, 72 h.
For data set [25], the system named is MCF7. As to the kind of experiment: Cell cycle arrest in human MCF7 cells assessed as accumulation at G2/M phase measured after 48 hrs by […] propidium iodide staining based flow cytometry analysis. The class given is functional. Particulars: MCF7, 48 h.
The target of data set [26] is cGMP-specific 3',5'-cyclic phosphodiesterase (Homo sapiens, UniProt O76074). As to the kind of experiment: Inhibition of PDE5 (unknown origin).
Data set [27] has as its target Epidermal growth factor receptor (Homo sapiens, UniProt P00533). The experiment in a line: Inhibition of EGFR (unknown origin) by EGFR Kinase Assay Kit method.
For data set [28], the system named is HeLa. As to the kind of experiment: Anticancer activity against human HeLa cells assessed as inhibition of cell proliferation measured after 24 hrs by MTT based microplate ELISA reader analysis. The class given is functional.
In data set [29] the test system is A549. As to the kind of experiment: Anticancer activity against human A549 cells assessed as inhibition of cell proliferation measured after 48 hrs by MTT assay based microtiter plate analysis. The data set is classed as functional. Particulars: A549, 48 h.

Chain of Tyrosine-protein kinase JAK2 (O60674 whole entry): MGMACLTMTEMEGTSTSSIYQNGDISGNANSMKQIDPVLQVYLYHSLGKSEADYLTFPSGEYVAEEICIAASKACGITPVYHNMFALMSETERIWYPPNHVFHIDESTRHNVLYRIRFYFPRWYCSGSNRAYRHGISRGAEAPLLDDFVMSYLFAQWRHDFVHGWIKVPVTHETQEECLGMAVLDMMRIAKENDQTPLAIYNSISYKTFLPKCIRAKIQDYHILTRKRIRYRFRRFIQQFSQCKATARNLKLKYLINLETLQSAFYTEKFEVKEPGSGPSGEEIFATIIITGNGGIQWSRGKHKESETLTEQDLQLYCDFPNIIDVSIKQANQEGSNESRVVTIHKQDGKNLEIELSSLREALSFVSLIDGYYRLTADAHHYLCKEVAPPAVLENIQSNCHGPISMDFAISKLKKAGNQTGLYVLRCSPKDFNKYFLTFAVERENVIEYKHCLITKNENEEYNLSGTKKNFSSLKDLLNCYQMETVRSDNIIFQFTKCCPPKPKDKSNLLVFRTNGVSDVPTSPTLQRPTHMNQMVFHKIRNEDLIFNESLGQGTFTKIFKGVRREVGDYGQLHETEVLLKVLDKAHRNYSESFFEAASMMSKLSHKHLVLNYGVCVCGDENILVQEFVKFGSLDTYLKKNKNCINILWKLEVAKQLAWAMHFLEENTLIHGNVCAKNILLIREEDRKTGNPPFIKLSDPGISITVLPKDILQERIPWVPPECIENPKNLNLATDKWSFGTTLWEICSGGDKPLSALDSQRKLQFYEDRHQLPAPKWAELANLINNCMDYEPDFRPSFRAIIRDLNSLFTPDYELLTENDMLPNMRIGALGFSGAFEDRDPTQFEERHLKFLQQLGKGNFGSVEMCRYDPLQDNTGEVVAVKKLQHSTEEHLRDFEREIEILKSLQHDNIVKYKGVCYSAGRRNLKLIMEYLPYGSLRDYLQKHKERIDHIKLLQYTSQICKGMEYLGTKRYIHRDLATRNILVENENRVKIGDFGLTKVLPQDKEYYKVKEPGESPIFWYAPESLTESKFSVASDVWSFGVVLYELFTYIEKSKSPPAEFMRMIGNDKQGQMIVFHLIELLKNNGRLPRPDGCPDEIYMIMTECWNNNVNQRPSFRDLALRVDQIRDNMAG
Chain of Tyrosine-protein kinase BTK (Q06187 whole entry): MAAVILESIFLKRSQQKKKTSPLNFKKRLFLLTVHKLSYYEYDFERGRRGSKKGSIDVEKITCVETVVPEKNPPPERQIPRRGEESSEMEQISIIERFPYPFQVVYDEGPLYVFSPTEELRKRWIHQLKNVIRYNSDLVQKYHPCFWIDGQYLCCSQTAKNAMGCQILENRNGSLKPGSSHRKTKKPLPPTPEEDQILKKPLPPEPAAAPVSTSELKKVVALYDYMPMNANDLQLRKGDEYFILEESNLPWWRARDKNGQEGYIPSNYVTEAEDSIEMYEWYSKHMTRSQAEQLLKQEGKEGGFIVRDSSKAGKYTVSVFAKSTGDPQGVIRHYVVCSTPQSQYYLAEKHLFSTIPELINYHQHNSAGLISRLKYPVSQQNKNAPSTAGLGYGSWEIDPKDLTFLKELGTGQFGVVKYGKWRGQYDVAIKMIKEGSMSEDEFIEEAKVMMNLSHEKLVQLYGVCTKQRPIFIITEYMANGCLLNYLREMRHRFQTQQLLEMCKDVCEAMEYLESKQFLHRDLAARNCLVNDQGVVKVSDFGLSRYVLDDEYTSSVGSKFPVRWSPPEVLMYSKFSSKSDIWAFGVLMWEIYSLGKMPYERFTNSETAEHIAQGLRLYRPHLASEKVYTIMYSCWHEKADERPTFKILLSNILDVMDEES
Chain of Epidermal growth factor receptor (P00533 whole entry): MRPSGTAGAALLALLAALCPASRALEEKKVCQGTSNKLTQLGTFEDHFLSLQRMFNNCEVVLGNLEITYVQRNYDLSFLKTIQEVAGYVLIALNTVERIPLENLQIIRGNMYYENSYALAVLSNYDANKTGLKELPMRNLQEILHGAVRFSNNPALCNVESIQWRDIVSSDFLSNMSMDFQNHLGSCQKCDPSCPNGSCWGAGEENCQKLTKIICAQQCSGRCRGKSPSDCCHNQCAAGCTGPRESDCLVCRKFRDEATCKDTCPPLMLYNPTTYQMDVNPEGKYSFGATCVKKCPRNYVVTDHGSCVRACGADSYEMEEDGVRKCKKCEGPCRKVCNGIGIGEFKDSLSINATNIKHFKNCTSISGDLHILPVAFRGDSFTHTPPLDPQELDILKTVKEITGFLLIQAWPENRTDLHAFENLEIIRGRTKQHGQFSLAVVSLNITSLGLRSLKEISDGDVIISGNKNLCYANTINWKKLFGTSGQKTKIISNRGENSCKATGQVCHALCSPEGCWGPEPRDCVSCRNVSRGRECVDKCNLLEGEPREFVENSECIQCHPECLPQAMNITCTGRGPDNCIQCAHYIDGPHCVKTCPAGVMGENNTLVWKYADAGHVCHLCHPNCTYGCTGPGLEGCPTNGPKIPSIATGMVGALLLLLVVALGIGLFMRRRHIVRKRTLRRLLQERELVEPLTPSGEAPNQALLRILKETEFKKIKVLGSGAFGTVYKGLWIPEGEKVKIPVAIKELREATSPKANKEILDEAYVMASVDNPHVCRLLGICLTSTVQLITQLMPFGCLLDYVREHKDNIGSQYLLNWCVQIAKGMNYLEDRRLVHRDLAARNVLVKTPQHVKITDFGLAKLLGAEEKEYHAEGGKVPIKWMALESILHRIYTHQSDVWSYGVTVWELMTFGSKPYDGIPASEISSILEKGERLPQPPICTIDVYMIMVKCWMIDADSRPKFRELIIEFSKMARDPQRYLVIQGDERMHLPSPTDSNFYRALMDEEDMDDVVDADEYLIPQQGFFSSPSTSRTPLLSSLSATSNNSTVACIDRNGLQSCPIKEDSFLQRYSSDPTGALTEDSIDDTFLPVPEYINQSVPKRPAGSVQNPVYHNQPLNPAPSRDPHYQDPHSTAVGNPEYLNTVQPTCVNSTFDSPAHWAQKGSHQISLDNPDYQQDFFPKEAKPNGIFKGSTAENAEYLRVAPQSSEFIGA

For the compound `Nc1ncnc2c1c(-c1ccc(Oc3ccccc3)nc1)nn2C1CCCN(C(=O)CCl)C1` (centres undefined), the pIC50 (as a rule, the negative decadic logarithm of the IC50, by convention in mol/L) in data set [1] was more than 6.00. Take `CCNc1nn2c(-c3ccccc3)cc(=O)[nH]c2c1C(=O)Nc1ccc([N+](=O)[O-])cc1`: in data set [2], the negative-log IC50 (pIC50) was 5.82. In the case of `Nc1nc(Cl)c2cnn(Cc3ccc(Br)cc3F)c2n1`, the results for the pIC50 in [3] and in data set [4] were 4.65 and 4.86, respectively. As to `CCOC(=O)C1=C(C)n2nc(CC#N)c(C#N)c2NC1c1ccccc1` (centres undefined), the negative logarithm of the IC50 (pIC50) in data set [5] is 5.09; in [6] it was 5.12; in data set [7], 5.36. In the same order, the values of `CCOC(=O)C1=C(C)n2nc(CC#N)c(C#N)c2NC1c1ccc(N(C)C)cc1` (centres undefined) are 5.03, 5.08 and 5.03. Regarding `CSc1c(C#N)c(N)nc2c(/N=N/N3C(=O)c4ccccc4C3=O)c(O)nn12`, the negative logarithm of the IC50 (pIC50) in [3] is 5.25; in data set [4], 5.38. Besides, the IC50 (in general, the concentration needed to halve the response being measured) in [8] stood at 5.6 µg/mL (≈ 14.2 µM). `CCOC(=O)C1=C(C)n2nc(CC#N)c(C#N)c2NC1c1cc(Br)ccc1O` (centres undefined): the results for the negative logarithm of the IC50 (pIC50) in data set [5], in [6] and in data set [7] were 5.25, 5.16 and 5.02, respectively. Regarding `CSc1nc(-c2ccco2)c2c(N)n[nH]c2n1`, the selectivity ratio in [9] amounted to 18.8. The pIC50 in [10] is 5.76.

For the compound `C=CC(=O)N1CCCC(N2NC(c3cc(C(C)(C)O)n(C)n3)c3c(N)ncnc32)C1` (centres undefined), the negative logarithm of the IC50 (pIC50) was 5.74 in data set [11], 8.10 in data set [12] and 5.05 in data set [13].

`Nc1ncnc2c1c(Cc1c[nH]c3ccccc13)nn2CC1CCNCC1`: the GI50 (commonly the concentration giving 50% growth inhibition) in [14] is 19 nM. For `Cc1nn(-c2ccccc2)c2nc(C)n(Cc3cn(-c4ccc(Cl)cc4)nn3)c(=O)c12`, the “inhibition (INH)” value in data set [15] and in [16] was 75.4% in each case. For the compound `Cn1nc(C2NN(C3CCCN(C(=O)CC#N)C3)c3ncnc(N)c32)cc1C(C)(C)O` (centres undefined), the pIC50 in data set [17] is 8.10.

As for `C=CC(=O)N1CCC(N2NC(c3cc(C(C)(C)O)n(C)n3)c3c(N)ncnc32)C1` (centres undefined), in [17], the negative logarithm of the IC50 (pIC50) is 8.14. On to `N#Cc1c(-c2ccccc2)nn2c(-c3cccc4ccccc34)ccnc12`, for which, in data set [18], the pIC50 was 5.52.

For the compound `Cc1cc(=O)n2nc(CC#N)c(C#N)c2[nH]1`, in data set [19], the negative logarithm of the IC50 (pIC50) was 5.39.

`O=C(NCc1cc(C(F)(F)F)cc(C(F)(F)F)c1)NC1CCN(c2ncnc3[nH]ncc23)CC1`: the pIC50 in data set [20], in [21] and in [22] was more than 6.00 throughout. As for `CC1=CC(C)Nc2c(C(=O)Nc3c(C)cccc3C)c(Nc3ccccc3)nn21` (centres undefined), the pIC50 in data set [23] was 5.11. As to `Cn1nc(C2NN(C3CCCN(C(=O)CC#N)C3)c3ncnc(N)c32)cc1C=O` (centres undefined), the pIC50 in data set [17] is 8.01. `Cc1cc(=O)n2nc(/C(C#N)=C\c3ccco3)c(C#N)c2[nH]1`: the negative-log IC50 (pIC50) in data set [19] was 5.72. Regarding `CSc1nc(-c2cccs2)c2c(N)n[nH]c2n1`, the selectivity ratio in data set [9] came to 35.5. Moreover, in data set [10], the negative-log IC50 (pIC50) was 5.92. Turning to `COc1ccc(C2c3c(-c4ccccc4)n[nH]c3Nc3[nH]c(=S)[nH]c(=S)c32)cc1` (centres undefined), the pIC50 in data set [24] was 5.04. For `COc1cc(/C=C(/C#N)c2nn3c(=O)cc(C)[nH]c3c2C#N)ccc1O`, the values for the pIC50 in data set [19] and in data set [25] were 5.64 and 5.72, respectively. With `COc1nc2ccccc2cc1-c1nc2c(cnn2-c2ccc(Br)cc2)c(=O)[nH]1`, the pIC50 in [3] was 5.06; in [26], 5.80; in [27] it was 5.23; in [4], 5.18. As for `COc1ccc(-c2c(C#N)cnc3c(C#N)c(-c4ccccc4)nn23)cc1`, in data set [28], the pIC50 is 5.11. For the compound `COc1cccc2c1C(=O)c1c(O)c3c(c(O)c1C2=O)C[C@@](O)(C(=O)CO)C[C@@H]3O[C@H]1C[C@H](N)[C@H](O)[C@H](C)O1` [DOXORUBICIN], the negative-log IC50 (pIC50) in [18] was 5.23; in data set [28] it was 5.09.

`C#Cc1cccc(Nc2ncnc3cc(OCCOC)c(OCCOC)cc23)c1` [ERLOTINIB]: in data set [29], the negative-log IC50 (pIC50) was 4.93. On to `O=c1[nH]cc(F)c(=O)[nH]1` [FLUOROURACIL], for which the selectivity ratio in [9] was 1.93. Also, the negative-log IC50 (pIC50) in data set [10] was 4.91.
